Data on 11 molecules can be found in ChEMBL document CHEMBL1201862, “PubChem BioAssay data set” (2004).

Among the test systems are CAKI-1; CCRF-CEM; COLO 205; HCC 2998; HL-60; HOP-62; IGROV-1; LOX IMVI; MOLT-4; NCI-H522; NCI/ADR-RES; RPMI-8226; SF-268; SK-MEL-5; SN12C; SW-620; UACC-257; HCT-15; UACC-62; HCT-116.
Common to all, as to experiment: NCI anticancer screen, dose series, 48 h

The structures appear in SMILES notation.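 Compound exposure: 48 hours, 5 concentrations, 96-well plates. Abbreviation: GI50, concentration required for 50% inhibition of growth.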 Active and inactive are the calls of the source. No stated cut-off is given here; in the data, active = GI50 up to about 1.1 µM and inactive = higher.

On to `C=CCn1c(=O)ccn(COCCO)c1=O`, for which the GI50 in the assay on CAKI-1, in the assay on CCRF-CEM, in the assay on COLO 205, in the assay on HCC 2998, with HL-60 and in the assay on HOP-62 was > 100 µM (inactive) in each case. Besides, the GI50 in the assay on IGROV-1, with LOX IMVI, with MOLT-4, in the assay with NCI-H522, in the assay with NCI/ADR-RES and with RPMI-8226 was > 100 µM (inactive) each time. The GI50 with SF-268, in the assay with SK-MEL-5, in the assay on SN12C, in the assay on SW-620 and in the assay on UACC-257 was > 100 µM (inactive) each time.
Regarding `CN(O)C(=O)CCCC(=O)NCC(C)(C)CNC(=O)CCCC(=O)N(C)O`, the GI50 in the assay on CAKI-1 is > 100 µM (inactive); with CCRF-CEM, > 100 µM (inactive); in the assay with COLO 205, > 100 µM (inactive); in the assay with HCC 2998, > 100 µM (inactive); in the assay on HCT-15 it was over 100 µM; with HL-60, > 100 µM (inactive). Further, the GI50 in the assay on HOP-62, with IGROV-1, in the assay on LOX IMVI, in the assay on MOLT-4, in the assay with NCI/ADR-RES and in the assay on RPMI-8226 was > 100 µM (inactive) in each case. Moreover, the GI50 with SF-268, in the assay on SK-MEL-5, in the assay on SW-620, in the assay with UACC-257 and with UACC-62 was > 100 µM (inactive) each time.
Turning to `O=C(CSCC(=O)N/N=C/c1cc(I)cc(I)c1O)N/N=C/c1cc(I)cc(I)c1O`, the GI50 with CAKI-1 was 18.3 µM (inactive); in the assay with COLO 205 it was 23.1 µM (inactive); in the assay with HCC 2998, 12.8 µM (inactive); with HCT-116, 9.29 µM (inactive); in the assay on HCT-15 it was 17.9 µM; in the assay with HL-60, 6.18 µM (inactive). Further, the GI50 in the assay with HOP-62 is 9.27 µM (inactive); in the assay on IGROV-1 it was 8.28 µM (inactive); in the assay with MOLT-4, 5.19 µM (inactive); in the assay on NCI-H522, 6.38 µM (inactive); in the assay with NCI/ADR-RES, 17.2 µM (inactive); in the assay on RPMI-8226, 26.5 µM (inactive). Also, the GI50 in the assay with SF-268 was 4.34 µM (inactive); in the assay with SK-MEL-5, 10.6 µM (inactive); in the assay on SN12C it was 23.2 µM (inactive); with SW-620, 13.6 µM (inactive); with UACC-257, 22.4 µM (inactive); in the assay with UACC-62, 12.8 µM (inactive).
Regarding `O=C1/C(=C/c2ccccc2)NC(=S)N1CN1CCOCC1`, the GI50 with CCRF-CEM was > 100 µM (inactive); with COLO 205, > 100 µM (inactive); with HCT-116 it was > 100 µM (inactive); in the assay on HCT-15, over 100 µM; in the assay with HOP-62 it was > 100 µM (inactive); with IGROV-1 it was > 100 µM (inactive). The GI50 with LOX IMVI, in the assay with MOLT-4, in the assay on NCI/ADR-RES, with RPMI-8226, in the assay on SF-268 and with SK-MEL-5 was > 100 µM (inactive) in each case. The GI50 with SN12C, with SW-620, in the assay with UACC-257 and in the assay on UACC-62 was > 100 µM (inactive) throughout.
For the molecule `CC(Oc1ccccc1Cl)C(=O)NN1C(=O)CSC1c1ccc(Cl)cc1` (centres undefined), the GI50 was 23.6 µM (inactive) with CAKI-1; 0.17 µM (active) in the assay with CCRF-CEM; 19.6 µM (inactive) with COLO 205; 18.4 µM (inactive) in the assay with HCC 2998; 14.5 µM (inactive) with HCT-116; 19.5 µM in the assay with HCT-15. The GI50 in the assay on HL-60 was 7.64 µM (inactive); in the assay with HOP-62, 17.4 µM (inactive); in the assay with IGROV-1 it was 20.7 µM (inactive); in the assay on LOX IMVI it was 19.6 µM (inactive); in the assay on NCI-H522 it was 16 µM (inactive); in the assay with NCI/ADR-RES it was 23.9 µM (inactive). Besides, the GI50 with RPMI-8226 was 17.9 µM (inactive); with SF-268 it was 20.6 µM (inactive); with SK-MEL-5 it was 17.6 µM (inactive); in the assay with SN12C, 14.8 µM (inactive); in the assay on SW-620, 23.4 µM (inactive); in the assay on UACC-257 it was 23.6 µM (inactive). In addition, the GI50 in the assay with UACC-62 was 17.8 µM (inactive).
For `C=CCc1cccc2cc(C(N)=O)c(=N)oc12`, the GI50 was > 100 µM (inactive) with CAKI-1; 52.8 µM (inactive) in the assay on CCRF-CEM; > 100 µM (inactive) in the assay on COLO 205; > 100 µM (inactive) in the assay with HCC 2998; 78.2 µM (inactive) in the assay with HCT-116; over 100 µM in the assay with HCT-15. Besides, the GI50 in the assay on HL-60 is > 100 µM (inactive); with HOP-62, > 100 µM (inactive); with IGROV-1, 23.8 µM (inactive); in the assay on LOX IMVI, 84.7 µM (inactive); with MOLT-4 it was > 100 µM (inactive); with NCI/ADR-RES it was > 100 µM (inactive). In addition, the GI50 in the assay on RPMI-8226 is > 100 µM (inactive); in the assay with SF-268 it was > 10 µM (inactive); in the assay with SK-MEL-5, > 100 µM (inactive); in the assay on SN12C, > 100 µM (inactive); in the assay on SW-620 it was > 100 µM (inactive); with UACC-257 it was > 100 µM (inactive). Besides, the GI50 in the assay with UACC-62 is 71.8 µM (inactive).
For `O=NN(CCCl)C(=O)N[C@H]1CC[C@H](C(=O)O)CC1`, the GI50 with CAKI-1 was > 100 µM (inactive); in the assay with CCRF-CEM, 36.3 µM (inactive); in the assay with COLO 205 it was > 100 µM (inactive); with HCC 2998, > 100 µM (inactive); in the assay with HCT-116 it was > 100 µM (inactive); with HCT-15 it was over 100 µM. The GI50 is 95.5 µM (inactive) in the assay with HOP-62; > 100 µM (inactive) in the assay on IGROV-1; > 72.6 µM (inactive) with LOX IMVI; 5.32 µM (inactive) in the assay on MOLT-4; 38.6 µM (inactive) with NCI-H522; > 100 µM (inactive) in the assay with NCI/ADR-RES. Moreover, the GI50 was > 66.8 µM (inactive) in the assay with RPMI-8226; 29.7 µM (inactive) in the assay with SF-268; > 31.6 µM (inactive) with SK-MEL-5; > 100 µM (inactive) in the assay with SN12C; > 61.1 µM (inactive) in the assay on SW-620; > 100 µM (inactive) in the assay on UACC-257. The GI50 with UACC-62 is 20.2 µM (inactive).
As for `COC(=O)C(=O)C(C(C)=O)C(=O)C(=O)Nc1ccc(C)cc1C` (centres undefined), the GI50 in the assay with CAKI-1 is > 100 µM (inactive); with CCRF-CEM it was > 100 µM (inactive); with COLO 205 it was > 100 µM (inactive); in the assay with HCC 2998 it was > 100 µM (inactive); with HCT-116, > 100 µM (inactive); in the assay on HCT-15, over 100 µM. In addition, the GI50 with HL-60, with HOP-62, with IGROV-1, in the assay with LOX IMVI, with MOLT-4 and in the assay with NCI-H522 was > 100 µM (inactive) throughout. The GI50 in the assay with RPMI-8226, in the assay with SF-268, with SK-MEL-5, with SN12C, with SW-620 and with UACC-257 was > 100 µM (inactive) throughout. Further, in the assay with UACC-62, the GI50 is > 100 µM (inactive).
`Cc1ccc(S(=O)(=O)N/N=C2/CCC(C(C)(C)C)CC2Br)cc1` (centres undefined): the GI50 was 28.1 µM (inactive) in the assay with CAKI-1; 24.5 µM (inactive) in the assay with CCRF-CEM; 27.2 µM (inactive) with COLO 205; 23.1 µM (inactive) in the assay on HCT-116; 34 µM in the assay with HCT-15; 41.9 µM (inactive) with HL-60. Besides, the GI50 is 32.4 µM (inactive) in the assay with HOP-62; 38.6 µM (inactive) with IGROV-1; 16.4 µM (inactive) in the assay on LOX IMVI; 20 µM (inactive) in the assay with MOLT-4; 18.2 µM (inactive) in the assay with NCI-H522; 17.6 µM (inactive) with NCI/ADR-RES. The GI50 with RPMI-8226 was 28.4 µM (inactive); with SF-268, 36.6 µM (inactive); with SK-MEL-5, 15.5 µM (inactive); in the assay with SN12C it was 17.3 µM (inactive); in the assay on SW-620, 23.9 µM (inactive); with UACC-257 it was 23 µM (inactive). For the same molecule, the GI50 in the assay on UACC-62 is > 10 µM (inactive).
As for `Cc1cccc(/C=C2\CCCc3ccccc3C2=O)c1`, the GI50 was 30.4 µM (inactive) with CAKI-1; 13.7 µM (inactive) in the assay on CCRF-CEM; 18.9 µM (inactive) in the assay with COLO 205; 15 µM (inactive) in the assay with HCT-116; 18.7 µM with HCT-15; 12.1 µM (inactive) with HL-60. Further, the GI50 with HOP-62 was 28.8 µM (inactive); in the assay with IGROV-1, 21.6 µM (inactive); in the assay on LOX IMVI, 19.3 µM (inactive); in the assay with MOLT-4, 16.9 µM (inactive); in the assay with NCI-H522, 12.7 µM (inactive); in the assay with NCI/ADR-RES, 22.4 µM (inactive). The GI50 in the assay with RPMI-8226 was 8.2 µM (inactive); in the assay with SF-268 it was 15.2 µM (inactive); with SN12C, 17.9 µM (inactive); with SW-620, 16.8 µM (inactive); with UACC-257, 21.6 µM (inactive); with UACC-62, 14 µM (inactive).
For the molecule `CC(=O)O[C@@H]1C2=C(C3=C([O-])C4=CC=CC(=O)C4C(=O)C3=C2[N+]#N)[C@H](OC(C)=O)[C@@H](OC(C)=O)[C@]1(C)O` (some centres undefined), the GI50 with CAKI-1 was 0.407 µM (active); with CCRF-CEM, 0.0323 µM (active); in the assay on HCC 2998 it was 0.262 µM (active); in the assay on HCT-116, 0.1 µM (active); in the assay with HCT-15 it was 0.119 µM; with HL-60 it was 0.105 µM (active). Moreover, the GI50 is 0.711 µM (active) with HOP-62; 0.347 µM (active) with IGROV-1; 0.124 µM (active) in the assay on LOX IMVI; 0.0959 µM (active) in the assay on MOLT-4; 0.173 µM (active) in the assay with NCI-H522; 0.128 µM (active) in the assay on NCI/ADR-RES. In addition, the GI50 in the assay on RPMI-8226 was 0.115 µM (active); with SF-268 it was 0.302 µM (active); in the assay with SK-MEL-5 it was 0.506 µM (active); with SW-620, 0.284 µM (active); in the assay on UACC-257 it was 0.719 µM (active); in the assay with UACC-62, 0.661 µM (active).
